Here are results for 1 compound from patent publication US9132108B2, “Pharmaceutical composition for ameliorating and/or preventing leptin resistance, and use thereof” (HIROSHIMA UNIVERSITY, priority 2009, dated 2015).

SMILES strings stand for the structures.

The test system of data set [1] is mice given high-fat diet (leptin resistance). The data set is described as follows: Body weight of mice given high-fat or normal diet with flurbiprofen for 8 weeks (Example 1). The data set is classed as in vivo, mouse. As to conditions: approximately 10 mg/kg per day orally in drinking water. The procedure:
In the Examples, 4 weeks-old male mice (C57BL/6 Cr Slc, SHIMIZU Laboratory Supplies Co., Ltd.) were used as laboratory animals. All the animal tests in the Examples were carried out according to the NIH Guide for Care and Use of Laboratory Animals.
Mice were divided into four groups each consisting of 7-8 mice. Mice of individual groups were given diets as follows. • Group 1: Normal diet (10 kcal % fat, D12450B, produced by Research Diets, Inc.) only • Group 2: High-fat diet (60 kcal % fat, D12492, produced by Research Diets, Inc.) only • Group 3: Normal diet+flurbiprofen (F8514, produced by SIGMA) • Group 4: High-fat diet+flurbiprofen (F8514, produced by SIGMA)
Flurbiprofen was diluted with drinking water so that the administration amount of flurbiprofen would be approximately 10 mg/kg per day, and was orally administered to the mice in the form of drinking water. Thereafter, the mice were weighed every 7 days.
FIG. 3 is a graph showing changes in body weights of the mice of individual groups during 8 weeks after flurbiprofen administration. Values in the graph of FIG. 3 are averages of body weights of mice of each group (± their standard deviations) (n=7-8 with respect to each group). Further, statistic analysis was carried out using t-test.

Another data set concerns plasma leptin levels. As to the kind of experiment: Plasma leptin levels by ELISA before and after fasting (Example 3). The format is in vivo, mouse. As to conditions: Group 4 (high-fat diet+flurbiprofen) vs Group 2, approximately 10 mg/kg per day orally, 8 weeks. The procedure:
4 weeks-old male mice (C57BL/6 Cr Slc) had been given normal diet (10 kcal % fat, D12450B, produced by Research Diets, Inc.) or high-fat diet (60 kcal % fat, D12492, produced by Research Diets, Inc.). Flurbiprofen was diluted with drinking water so that the administration amount of flurbiprofen would be approximately 10 mg/kg per day, and was orally administered to the mice in the form of drinking water. Specifically, mice were divided into four groups each consisting of 7-8 mice. Mice of individual groups were given diets as follows. • Group 1: Normal diet (10 kcal % fat) only • Group 2: High-fat diet (60 kcal % fat) only • Group 3: Normal diet+flurbiprofen • Group 4: High-fat diet+flurbiprofen 20-25 μL of blood samples before or after fasting for 28-29.5 hours were obtained from mice via tail vein, which had been given high-fat diet or normal diet for 8 weeks. […] Plasma leptin levels in the supernatants obtained by the centrifugation were measured by ELISA. […] Values in the graph of (a) of FIG. 6 are averages of plasma leptin levels of mice of each group measured before fasting (± their standard deviations) (n=7-8 with respect to each group). Similarly, values in the graph of (b) of FIG. 6 are averages of plasma leptin levels of mice of each group measured after fasting (± their standard deviations) (n=7-8 with respect to each group). […]
In general terms: ELISA stands for enzyme-linked immunosorbent assay.

A further data set concerns mice given high-fat diet. The data set is described as follows: High-fat diet-induced accumulation of visceral fat (Example 5). The data set is classed as in vivo, mouse. The conditions noted are these: Group 4 (high-fat diet+flurbiprofen) vs Group 2; 10 mg/kg per day orally, 8 weeks; significance level <5%. As to the method: 4 weeks-old mice (C57BL/6 Cr Slc) were divided into four groups each consisting of 7-8 mice. Mice of individual groups were given diets as follows for 8 weeks similarly with Example 4. • Group 1: Normal diet (10 kcal % fat) only • Group 2: High-fat diet (60 kcal % fat) only • Group 3: Normal diet+flurbiprofen • Group 4: High-fat diet+flurbiprofen Flurbiprofen (F8514, produced by SIGMA) was diluted with drinking water so that the administration amount of flurbiprofen would be 10 mg/kg per day, and was orally administered to the mice in the form of drinking water. The mice raised for 8 weeks with high-fat diet or normal diet were cut open along a median line, and the amount of fatty tissue (visceral fat) was measured. Visceral fat was extracted from the abdomen of a mouse, and wet weight of the fat was measured. […] FIG. 9 is a graph showing the amounts of fat contents of mice of individual groups to which flurbiprofen had been administered for 8 weeks. Values in the graph of FIG. 9 are averages of the amounts (g) of fat of mice of each group (± their standard deviations) (n=7-8 with respect to each group). Further, statistic analysis was carried out using t-test.

The subject of data set [2] is mice given high-fat diet (leptin resistance). The data set is described as follows: Leptin-induced inhibition of food intake (Example 7). The data set is classed as in vivo, mouse. The conditions noted are these: Group 4 (high-fat diet+flurbiprofen); 10 mg/kg per day orally, 8 weeks; leptin 0.5 mg/kg i.p.; no significant difference vs Group 1. The procedure:
Specifically, 4 weeks-old male mice (C57BL/6 Cr Slc) were divided into four groups each consisting of 6-8 mice. Mice of individual groups were given diets as follows for 8 weeks similarly with Example 5. • Group 1: Normal diet (10 kcal % fat) only • Group 2: High-fat diet (60 kcal % fat) only • Group 3: Normal diet+flurbiprofen • Group 4: High-fat diet+flurbiprofen
Flurbiprofen (F8514, produced by SIGMA) was diluted with drinking water so that the administration amount of flurbiprofen would be 10 mg/kg per day, and was orally administered to the mice in the form of drinking water.
FIG. 11 is a drawing showing the procedure of the test in Example 7. […] The mice were then habituated for 3 days. Day 0 was the date when the isolation started. In order to eliminate the influence of injection on feeding behavior, 5 mL/kg of physiological saline was intraperitoneally (i.p.) administered as dummy on Days 3 and 4. […]
Subsequently, 0.5 mg/kg of leptin (498-OB, rmLeptin, produced by R&D systems) was intraperitoneally (i.p.) administered on Day 6 and the amount of food intake up to 24 hours after the leptin administration was measured on Day 7. Using the ratio of the amount of food intake on Days 6 and 7 to the amount of food intake on Days 5 and 6 as a reference index, what influence leptin had on the amount of food intake (rate of change in amount of food intake) was analyzed. […]

In another data set the test system is GRP78 and CHOP. The conditions noted are these: described in Patent Literature 1; cited from earlier work.

With `C[C@@H](C(=O)O)c1ccc(-c2ccccc2)c(F)c1` [flurbiprofen], the body weight entry in data set [1] (Group 3 (normal diet+flurbiprofen) vs Group 1 (normal diet only)) was “no significant difference in body weight”; in data set [1] (Group 4 (high-fat diet+flurbiprofen) vs Group 2 (high-fat diet only), significance level <5%) it was “prevented an increase in body weight”. Besides, the plasma leptin levels entry in the data set on plasma leptin levels is “significantly lower plasma leptin levels”. The “amount of fat content (visceral fat, wet weight)” value with mice given high-fat diet is on record as “significant decrease in the amount of fat content”. In addition, the “rate of change in amount of food intake after leptin administration” value in data set [2] was “reduced food intake caused by leptin”. For the same compound, the “expression of GRP78 and CHOP induced by endoplasmic reticulum stress” value in the data set on GRP78 and CHOP was “prevented”.
